Data taken from ChEMBL document CHEMBL1156829 (Proc Natl Acad Sci U S A, 2008).

How the values were obtained:
[1] = NOVARTIS: Cytotoxicity against human hepatocellular carcinoma cell line (Huh7); type: toxicity, cell-based, Huh-7; conditions: Huh7 cells (hepatocellular carcinoma cell line)
Plasmodium falciparum [2] = assay: NOVARTIS: Inhibition of Plasmodium falciparum 3D7 (drug-susceptible) proliferation in erythrocyte-based infection assay; type: functional, organism-based; conditions: Plasmodium falciparum, 3D7
Plasmodium falciparum [3] = assay: NOVARTIS: Inhibition of Plasmodium falciparum W2 (drug-resistant) proliferation in erythrocyte-based infection assay; type: functional, organism-based; conditions: Plasmodium falciparum, W2; read-out: EC50

Structure (SMILES) | CC50 [1] | EC50 (Plasmodium falciparum [2]) | EC50 (Plasmodium falciparum [3])
CN(C)c1cc(NC(=O)Nc2ccccc2)c2ccccc2n1 | 6780 nM | 148 nM | 332 nM
CC[C@@H]1CN2CC[C@H]1C[C@H]2[C@H](O)c1ccnc2ccc(OC)cc12 | > 6250 nM | 103 nM | 298 nM
COc1ccc(CCN2C(=O)c3ccc(Oc4ccc(NC(=O)c5oc(=O)c6ccccc6c5-c5ccccc5)cc4)cc3C2=O)cc1OC | > 100000 nM | > 12500 nM | 4800 nM
CCN1C=CC(=Cc2ccc3ccccc3[n+]2C)C=C1 | 20000 nM | 453 nM | 976 nM
Oc1cccc(Nc2nc(NCC3CCCO3)c3ccccc3n2)c1 (stereo unspecified) | 6980 nM | 266 nM | 341 nM
COc1ccc2nc(-c3ccccc3)cc(NCCN(C)C)c2c1 | > 10000 nM | 171 nM | 478 nM
Oc1cccc(-c2nc(-c3ccccc3)c(-c3ccc4oc5ccc(-c6[nH]c(-c7cccc(O)c7)nc6-c6ccccc6)cc5c4c3)[nH]2)c1 | 20400 nM | 2350 nM | 1010 nM
COc1ccccc1C(=O)N1CCN(Cc2ccc3ccccc3c2)CC1 | > 100000 nM | > 12500 nM | 4860 nM
O=C(CN1C(=O)c2ccccc2C1=O)Nc1cc(Cl)ccc1C(=O)O | > 10000 nM | > 1250 nM | 486 nM
COc1ccccc1CN1CCC(S(=O)(=O)c2ccccc2)CC1 | 1080 nM | 349 nM | 52.3 nM
CN(C)C(=O)C1C2NC(=S)N(c3ccccc3)C1(C)Oc1ccccc12 (stereo unspecified) | > 10000 nM | 1750 nM | 483 nM
COc1ccc(NC(=O)c2cccc([N+](=O)[O-])c2C)cc1 | > 100000 nM | > 3550 nM | 4770 nM
CCN1CCC(Nc2ccnc3cc4ccccc4cc23)CC1 | > 10000 nM | 81.5 nM | 477 nM
Cc1ccccc1-c1cnnc(NCC2CCCCO2)n1 (stereo unspecified) | > 100000 nM | 11100 nM | 4820 nM
CN1CCc2c(C#N)c(N3CCCC3)nc(N3CCCC3)c2C1 | > 100000 nM | 2120 nM | 4820 nM
CCCCCN(C(=O)c1cccc(F)c1)C(CC)c1nc2ccccc2c(=O)n1-c1ccc(Cl)cc1C (stereo unspecified) | > 10000 nM | 1460 nM | 480 nM
CCOC(=O)C1CSC(c2ccc(C(F)(F)F)cc2)N1C(=O)/C=C/c1ccccc1 (stereo unspecified) | > 7950 nM | > 1340 nM | 381 nM
COc1ccc(NC(=O)c2cc3cc(C4(O)CCN(CC(C)(C)C)CC4)ccc3o2)cc1OC | > 10000 nM | > 1250 nM | 480 nM
COc1ccc(/C=C/c2nc(=O)c3ccccc3o2)cc1 | > 10000 nM | 1240 nM | 480 nM
Cc1ccccc1C(=O)NCCCCNc1ccnc2cc(Cl)ccc12 | > 10000 nM | 450 nM | 479 nM
O=C(NCCCCNc1ccnc2cc(Cl)ccc12)C1CCCC1 | > 10000 nM | 409 nM | 485 nM
COc1ccc(S(=O)(=O)NCCCCNc2ccnc3cc(Cl)ccc23)cc1 | > 10000 nM | 345 nM | 484 nM
O=C(NCCCCNc1ccnc2cc(Cl)ccc12)c1ccccc1Br | > 10000 nM | 468 nM | 494 nM
COc1ccccc1NC(=O)c1cnn(-c2ccccc2)c1-n1cccc1 | > 10000 nM | > 119 nM | 494 nM
CN1CCN(c2cc(-c3ccncc3)nc(-c3cccnc3)n2)CC1 | > 10000 nM | 511 nM | 494 nM
CCOC(=O)c1cnc2c(OC)cccc2c1Nc1ccc(OC)c(OC)c1 | > 10000 nM | 827 nM | 493 nM

Structure (SMILES) | CC50 [1] | EC50 (Plasmodium falciparum [2]) | EC50 (Plasmodium falciparum [3])
O=[N+]([O-])c1cc(C(F)(F)F)c(Cl)c([N+](=O)[O-])c1Nc1cc(C(F)(F)F)ccc1Cl | 6130 nM | 565 nM | 301 nM
CCOc1ccc(N=C2NC(=O)SC2=C2C(=O)Nc3ccc(Br)cc32)cc1 | > 100000 nM | > 12500 nM | 4910 nM
c1ccc(CN2CCC(Nc3ncnc4cc(-c5ccccc5)sc34)CC2)cc1 | > 100000 nM | 2060 nM | 4890 nM
COCCNCCN1CCN(c2ccc(C)cc2)C[C@@H]1c1ccccc1 | 11200 nM | 436 nM | 548 nM
Cc1ccc(N=C2NC(=O)/C(=C\c3cc(C)n(-c4cccc([N+](=O)[O-])c4)c3C)S2)cc1 | > 10000 nM | 442 nM | 488 nM
CN(C)c1cc[n+](Cc2ccccc2)cc1 | > 100000 nM | 2420 nM | > 4870 nM
CN(C)c1ccc(/C=C2\SC(=Nc3ccc(F)cc3)NC2=O)cc1 | > 10000 nM | 361 nM | 493 nM
CCN(CC)CCCC(C)NCc1ccc(OCc2ccccc2)c(OC)c1 (stereo unspecified) | > 10000 nM | 771 nM | 494 nM
CCCCCCCCCn1c2c(c(=N)c3c1CCC3)CCCC2 | 3740 nM | 132 nM | 185 nM
Cc1nn(C(=O)NS(=O)(=O)c2ccccc2Cl)c(C)c1C | > 10000 nM | > 810 nM | > 496 nM
CCOC(=O)C1=C(C)N=c2sc(=Cc3c4ccccc4cc4ccccc34)c(=O)n2C1c1cc(OC)ccc1OC (stereo unspecified) | > 100000 nM | > 12500 nM | 4770 nM
CCCCOC(=O)Cc1ccc(N)cc1 | 5970 nM | 462 nM | 284 nM
COc1ccc(CN(Cc2cc3cccc(C)c3[nH]c2=O)C(=S)NC2CCCCC2)cc1 | > 10000 nM | > 1250 nM | 487 nM
Cc1ccc(-c2cc(-c3cc(Cl)ccc3O)on2)cc1 | > 10000 nM | > 798 nM | 472 nM
Cc1ccc2nc3c(c(Nc4ccc(N(C)C)cc4)c2c1)CCC3 | 19800 nM | 1790 nM | 950 nM
O=C(c1ccc([N+](=O)[O-])cc1[N+](=O)[O-])N1CCCCC1 | > 100000 nM | > 12500 nM | 4860 nM
Cc1cc(N2CCCC2)nc2ccc(NC(=S)NCCCN3CCc4ccccc4C3)cc12 | 19100 nM | 263 nM | 924 nM
C=CCSc1oc(-c2ccco2)nc1[P+](c1ccccc1)(c1ccccc1)c1ccccc1 | 8420 nM | 310 nM | 416 nM
COc1cc(OC)nc(CSc2ccc(NC(=O)CCl)cc2)n1 | > 10000 nM | 518 nM | 479 nM
O=C(Nc1ccc(N2CCCCC2)cc1)N1CCc2nc[nH]c2C1c1ccc(Cl)cc1 (stereo unspecified) | > 5040 nM | 640 nM | 239 nM
Fc1ccc(CSc2nc3cccnc3[nH]2)cc1 | > 100000 nM | 3620 nM | 4800 nM
COc1cc(C(=O)Nc2cnc3ccccc3c2)ccc1-n1cnnn1 | > 100000 nM | 3980 nM | 4750 nM
COc1cc(CN2CCN(c3ccccn3)CC2)cc(I)c1O | > 100000 nM | > 9900 nM | 4890 nM
C=CCOc1ccccc1CN1CCN(c2ccccn2)CC1 | > 98500 nM | > 9990 nM | 4850 nM
COc1cc(OC)cc(C(=O)N2CCC(C(=O)Nc3cccc4ccccc34)CC2)c1 | > 10000 nM | > 481 nM | 485 nM
O=C(CCCCCN1C(=O)c2cccc3cccc(c23)C1=O)NO | 3320 nM | 563 nM | 164 nM
